In patent US5985844A, “Homoerythromycin A derivatives modified at the 4"-and 8A-positions” (Merck & Co., Inc., priority 1992, dated 1999):
Values after ≈ are worked out from the molar mass of the structure shown. Where two headings read alike, the source gives them in different places.

Key:
Experiment in all cases: liquid turbidimetric microtiter MIC, broth media
Assay type in all cases: cell-based
[1] = test system: Enterobacter cloacae CL 4298
Text: (§1) The antibacterial activities of the compounds of Examples 8 and 10 against a panel of aerobic Gram positive and negative bacteria is shown in Table I. Similarly, the antibacterial activities of the compounds of Examples 89, 94, 96, and 97 are presented in Table II. The assay employs a liquid turbidimetric microtiter method for the determination of the minimum inhibitory concentration (MIC) in broth media. […] The MIC is generally not an absolute value but rather a concentration range that falls within a two-fold dilution limit. Generally twelve two-fold dilutions of the test compound are employed with the initial concentration set at 128 mcg/ml.

[2] = test system: Enterococcus faecalis MB 5407
Text: as §1

Escherichia coli MB 2884 = test system: Escherichia coli MB 2884
Text: as §1

[3] = test system: Haemophilus influenzae AT 43163
Text: as §1

[4] = test system: Haemophilus influenzae MB 5363
Text: as §1

[5] = test system: Klebsiella pneumoniae MB 4005
Text: as §1

[6] = test system: Staphylococcus aureus MB 2865
Text: as §1

[7] = test system: Staphylococcus epidermidis MB 5414
Text: as §1

[8] = test system: Streptococcus pneumoniae CL 2883
Text: as §1

[9] = test system: Streptococcus pyogenes MB 2874
Text: as §1

[10] = test system: Enterococcus faecium MB 5416; conditions: MB5416
Text: as §1

Escherichia coli MB 4926 = conditions: MB4926
Text: as §1

[11] = test system: Pseudomonas stutzeri MB 1231; conditions: Stutzerimonas stutzeri, MB1231
Text: as §1

[12] = test system: Staphylococcus haemolyticus MB 5412; conditions: MB5412
Text: as §1

[13] = test system: Streptococcus agalactiae CL 1343; conditions: CL1343
Text: as §1

[14] = test system: Streptococcus pyogenes MB 54061; conditions: MB54061
Text: as §1

[15] = test system: Streptococcus viridans CL 2943; conditions: CL2943
Text: as §1

CC[C@H]1OC(=O)[C@H](C)[C@@H](O[C@H]2C[C@@](C)(OC)[C@H](O)[C@H](C)O2)[C@H](C)[C@@H](O[C@@H]2O[C@H](C)C[C@H](N(C)C)[C@H]2O)[C@](C)(O)C[C@@H](C)N(C)C[C@H](C)[C@@H](O)[C@]1(C)O [Example 89, 4"-epi-9-deoxo-8a-aza-8a-methyl-8a-homoerythromycin A] showed an MIC ([1]; CL4298, read-out: MIC) of 0.5 µg/mL (≈ 0.668 µM), an MIC ([2]; MB5407, read-out: MIC) of 1 µg/mL (≈ 1.34 µM) and an MIC (Escherichia coli MB 2884; MB2884, read-out: MIC) of 1 µg/mL (≈ 1.34 µM). For the same compound, the MIC ([3]; AT43163, read-out: MIC) was 0.5 µg/mL (≈ 0.668 µM), the MIC ([4]; MB5363, read-out: MIC) was 0.5 µg/mL (≈ 0.668 µM) and the MIC ([5]; MB4005, read-out: MIC) was 1 µg/mL (≈ 1.34 µM). For the same compound, the MIC ([6]; MB2865, read-out: MIC) was 0.5 µg/mL (≈ 0.668 µM), the MIC ([7]; MB5414, read-out: MIC) was 0.25 µg/mL (≈ 0.334 µM) and the MIC ([8]; CL2883, read-out: MIC) was no more than 0.06 µg/mL. It also gave an MIC ([9]; MB2874, read-out: MIC) of no more than 0.06 µg/mL.
With CC[C@H]1OC(=O)[C@H](C)[C@@H](O[C@H]2C[C@@](C)(OC)[C@@H](O)[C@H](C)O2)[C@H](C)[C@@H](O[C@@H]2O[C@H](C)C[C@H](N(C)C)[C@H]2O)[C@](C)(O)C[C@@H](C)NC[C@H](C)[C@@H](O)[C@]1(C)O [Example 8, 9-Deoxo-8a-aza-8a-homoerythromycin A] the MIC ([2]; MB5407, read-out: MIC) was 8 µg/mL (≈ 10.9 µM), the MIC [10] was 0.25 µg/mL (≈ 0.34 µM) and the MIC (Escherichia coli MB 2884; MB2884, read-out: MIC) was 4 µg/mL (≈ 5.44 µM). The MIC (Escherichia coli MB 4926) was 2 µg/mL (≈ 2.72 µM), the MIC ([5]; MB4005, read-out: MIC) was 8 µg/mL (≈ 10.9 µM) and the MIC [11] was no more than 0.06 µg/mL. For the same compound, the MIC ([6]; MB2865, read-out: MIC) was 0.5 µg/mL (≈ 0.68 µM), the MIC ([7]; MB5414, read-out: MIC) was 1 µg/mL (≈ 1.36 µM) and the MIC [12] was 0.5 µg/mL (≈ 0.68 µM). It also gave an MIC [13] of no more than 0.06 µg/mL, an MIC ([8]; CL2883, read-out: MIC) of no more than 0.06 µg/mL and an MIC ([9]; MB2874, read-out: MIC) of no more than 0.06 µg/mL. It also gave an MIC [14] of 128 µg/mL (≈ 174 µM) and an MIC [15] of 8 µg/mL (≈ 10.9 µM).
For CC[C@H]1OC(=O)[C@H](C)[C@@H](O[C@H]2C[C@@](C)(OC)[C@@H](O)[C@H](C)O2)[C@H](C)[C@@H](O[C@@H]2O[C@H](C)C[C@H](N(C)C)[C@H]2O)[C@](C)(O)C[C@@H](C)C(=O)[C@H](C)[C@@H](O)[C@]1(C)O [Erythromycin A, erythromycin A], the MIC [1] was 16 µg/mL (≈ 21.8 µM), the MIC [2] was 1 µg/mL (≈ 1.36 µM) and the MIC (Escherichia coli MB 2884; MB2884, read-out: MIC) was 16 µg/mL (≈ 21.8 µM). For the same compound, the MIC [3] was 2 µg/mL (≈ 2.73 µM), the MIC [4] was 2 µg/mL (≈ 2.73 µM) and the MIC [5] was 32 µg/mL (≈ 43.6 µM). For the same compound, the MIC [6] was 0.12 µg/mL (≈ 0.164 µM), the MIC [7] was 0.12 µg/mL (≈ 0.164 µM) and the MIC [8] was no more than 0.06 µg/mL. The MIC [9] was no more than 0.06 µg/mL.
Work on CC[C@H]1OC(=O)[C@H](C)[C@@H](O[C@H]2C[C@@](C)(OC)[C@@H](O)[C@H](C)O2)[C@H](C)[C@@H](O[C@@H]2O[C@H](C)C[C@H](N(C)C)[C@H]2O)[C@](C)(O)C[C@@H](C)N(C)C[C@H](C)[C@@H](O)[C@]1(C)O [Example 10, 9-Deoxo-8a-aza-8a-methyl-8a-homoerythromycin A] yielded an MIC ([2]; MB5407, read-out: MIC) of 4 µg/mL (≈ 5.34 µM), an MIC [10] of 0.25 µg/mL (≈ 0.334 µM) and an MIC (Escherichia coli MB 2884; MB2884, read-out: MIC) of 1 µg/mL (≈ 1.34 µM). The MIC (Escherichia coli MB 4926) was 0.06 µg/mL (≈ 0.0801 µM), the MIC ([5]; MB4005, read-out: MIC) was 2 µg/mL (≈ 2.67 µM) and the MIC [11] was no more than 0.06 µg/mL. The MIC ([6]; MB2865, read-out: MIC) was 0.5 µg/mL (≈ 0.668 µM), the MIC ([7]; MB5414, read-out: MIC) was 1 µg/mL (≈ 1.34 µM) and the MIC [12] was 0.5 µg/mL (≈ 0.668 µM). It also gave an MIC [13] of no more than 0.06 µg/mL, an MIC ([8]; CL2883, read-out: MIC) of no more than 0.06 µg/mL and an MIC ([9]; MB2874, read-out: MIC) of no more than 0.06 µg/mL. It also gave an MIC [14] of 128 µg/mL (≈ 171 µM) and an MIC [15] of 1 µg/mL (≈ 1.34 µM).
CC[C@H]1OC(=O)[C@H](C)[C@@H](O[C@H]2C[C@@](C)(OC)[C@@H](N)[C@H](C)O2)[C@H](C)[C@@H](O[C@@H]2O[C@H](C)C[C@H](N(C)C)[C@H]2O)[C@](C)(O)C[C@@H](C)N(C)C[C@H](C)[C@@H](O)[C@]1(C)O [Example 96, 4"-Deoxy-4"-(S)-amino-9-deoxo-8a-aza-8a-methyl-8a-homoerythromycin A] was tested, and the MIC [1] was no more than 0.06 µg/mL, the MIC [2] was 2 µg/mL (≈ 2.67 µM) and the MIC (Escherichia coli MB 2884) was 0.12 µg/mL (≈ 0.16 µM). The MIC [3] was 0.25 µg/mL (≈ 0.334 µM), the MIC [4] was 0.25 µg/mL (≈ 0.334 µM) and the MIC [5] was 0.12 µg/mL (≈ 0.16 µM). It also gave an MIC [6] of 1 µg/mL (≈ 1.34 µM), an MIC [7] of 0.51 µg/mL (≈ 0.682 µM) and an MIC [8] of no more than 0.06 µg/mL. It also gave an MIC [9] of no more than 0.06 µg/mL.
In the case of “4"-Deoxy-4"-amino-9-deoxo-8a-aza-8a-methyl-8a-homoerythromycin A [Example 94]”, the MIC [1] is reported as no more than 0.06 µg/mL, the MIC [2] is reported as 4 µg/mL and the MIC (Escherichia coli MB 2884) is reported as 0.12 µg/mL. For the same compound, the MIC [3] was 0.25 µg/mL, the MIC [4] was 0.5 µg/mL and the MIC [5] was 0.12 µg/mL. The MIC [6] was 1 µg/mL, the MIC [7] was 0.5 µg/mL and the MIC [8] was no more than 0.06 µg/mL. It also gave an MIC [9] of no more than 0.06 µg/mL.
CC[C@H]1OC(=O)[C@H](C)[C@@H](O[C@H]2C[C@@](C)(OC)[C@H](N)[C@H](C)O2)[C@H](C)[C@@H](O[C@@H]2O[C@H](C)C[C@H](N(C)C)[C@H]2O)[C@](C)(O)C[C@@H](C)N(C)C[C@H](C)[C@@H](O)[C@]1(C)O [Example 97, 4"-Deoxy-4"-(R)-amino-9-deoxo-8a-aza-8a-methyl-8a-homoerythromycin A] showed an MIC [1] of 0.12 µg/mL (≈ 0.16 µM), an MIC [2] of 2 µg/mL (≈ 2.67 µM) and an MIC (Escherichia coli MB 2884) of 0.25 µg/mL (≈ 0.334 µM). For the same compound, the MIC [3] was 0.25 µg/mL (≈ 0.334 µM), the MIC [4] was 0.5 µg/mL (≈ 0.668 µM) and the MIC [5] was 0.25 µg/mL (≈ 0.334 µM). It also gave an MIC [6] of 1 µg/mL (≈ 1.34 µM), an MIC [7] of 0.5 µg/mL (≈ 0.668 µM) and an MIC [8] of no more than 0.06 µg/mL. The MIC [9] was no more than 0.06 µg/mL.
